In patent publication US6821980B1, “Substituted 5-benzyl-2,4-diaminopyrimidines” (Basilea Pharmaceutica AG, priority 1999, dated 2004):
≈ marks a conversion by molar mass, not a printed value. Where two headings read alike, the source gives them in different places.

Columns and labels:
[1] = tested on: Streptococcus pneumoniae 1/1; assay: MIC against Streptococcus pneumoniae 1/1; assay type: cell-based
[2] = tested on: Staphylococcus aureus 101; assay: MIC against Staphylococcus aureus 101; assay type: cell-based; conditions: for MIC: read-out: MIC Sa101
[3] = target: T1, purified DHFR of strain Sp1/1 of Streptococcus pneumoniae (Streptococcus pneumoniae serotype 4, UniProt Q54801); assay type: biochemical; conditions: IC50 against purified DHFR of strain Sp1/1
T1 sequence (Q54801 1-168 I100L): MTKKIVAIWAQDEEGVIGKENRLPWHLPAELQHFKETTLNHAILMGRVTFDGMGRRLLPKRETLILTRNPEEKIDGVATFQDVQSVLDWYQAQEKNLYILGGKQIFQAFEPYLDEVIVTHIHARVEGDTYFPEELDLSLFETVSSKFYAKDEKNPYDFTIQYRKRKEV

[4] = target: purified DHFR of strain 157/4696 of Staphylococcus aureus (Staphylococcus aureus, UniProt P13955); assay: biochemical
[5] = Table 2, Streptococcus pneumoniae 1/1, trimethoprim- and penicillin-resistant, serotype 6, clinical isolate, read-out: MIC Sp1/1
[6] = Table 2, Staphylococcus aureus 101, MRSA- and trimethoprim-resistant, clinical isolate
[7] = Table 2, Streptococcus pneumoniae 1/1, trimethoprim- and penicillin-resistant, serotype 6, clinical isolate
[8] = Table 2, IC50 against purified DHFR of strain 157/4696 (highly trimethoprim-resistant; clinical isolate), read-out: DHFR Sa1

purified DHFR of strain 157/4696 of Staphylococcus aureus, sequence (P13955 whole entry): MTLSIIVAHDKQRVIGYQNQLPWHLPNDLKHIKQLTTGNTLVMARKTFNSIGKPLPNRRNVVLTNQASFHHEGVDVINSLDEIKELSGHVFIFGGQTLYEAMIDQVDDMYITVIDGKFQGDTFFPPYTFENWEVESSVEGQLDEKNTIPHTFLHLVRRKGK

Row | SMILES | IC50 ([3]; Table 2) | IC50 [4] | MIC [1, 5] | MIC [2, 6] | other results
1 | CCOc1cc(Cc2cnc(N)nc2N)cc(OCC)c1-c1ccc(O)cc1 [Example 02-t, 4′-(2,4-Diamino-pyrimidin-5-ylmethyl)-2′,6′-diethoxy-biphenyl-4-ol] | 81 nM | 1100 nM | – | – | MIC ([1]; Streptococcus pneumoniae, 1/1, read-out: MIC Sp1/1): 4 µg/mL (≈ 10.5 µM); MIC ([2]; Staphylococcus aureus, MRSA): 8 µg/mL (≈ 21 µM)
2 | CCOc1cc(Cc2cnc(N)nc2N)cc(OCCC2CC2)c1-c1ccc(O)cc1 [Example 08-l, 2′-(2-Cydopropyl-ethoxy)-4′-(2,4-diamino-pyrimidin-5-ylmethyl)-6′-ethoxy-biphenyl-4-ol] | 58 nM | 2200 nM | 8 µg/mL (≈ 19 µM) | 4 µg/mL (≈ 9.51 µM) | –
3 | CCOc1cc(Cc2cnc(N)nc2N)cc(OCC2(COC)CC2)c1-c1cccc(N)c1 [Example 07-c, 5-[3′-Amino-6-ethoxg-2-[(1-methoxymethyl-cyclopropyl)-methoxy]-biphenyl-4-yimethyl]-pyrimidine-2,4-diamine] | 48 nM | 2200 nM | 4 µg/mL (≈ 8.9 µM) | 8 µg/mL (≈ 17.8 µM) | –
4 | CCOc1cc(Cc2cnc(N)nc2N)cc(OCC)c1-c1ccc(NC(=O)CN2CCOCC2)cc1 [Example 04-g, N-[4′-(2,4-Diamino-pyrimidin-5-ylmethyl)-2′,6′-diethoxy-biphenyl-4-yl]-2-morpholin-4-yl-acetamide] | 40 nM | 1100 nM | 4 µg/mL (≈ 7.9 µM) | 8 µg/mL (≈ 15.8 µM) | –
5 | CCOc1cc(Cc2cnc(N)nc2N)cc(OCC(C)C)c1-c1ccc(OC)cc1 [Example 09-g, 5-(2-Ethoxy-6-isobutox-4′-methoxy-biphenyl-4-ylmethyl)-pyrimidine-2,4-diamine] | 50 nM | 1600 nM | 4 µg/mL (≈ 9.47 µM) | 4 µg/mL (≈ 9.47 µM) | –
6 | CCOc1cc(Cc2cnc(N)nc2N)cc(OCC2CC2)c1-c1ccc(OCC#N)cc1 [Example 59-, [2′-Cycloproplmethoxy-4′-(2,4-diamino-pyrimidin-5-ylmethyl)-6′-ethoxy-biphenyl-4-yloxy]-acetonitrile] | 18 nM | 1800 nM | 2 µg/mL (≈ 4.49 µM) | 8 µg/mL (≈ 18 µM) | –
7 | CCOc1cc(Cc2cnc(N)nc2N)cc(OCC)c1-c1ccc(CN2CCOCC2)nc1 [Example 04-d, 5-[3,5-Diethoxy-4-(6-morpholin-4-ylmethyl-pyridin-3-yl)-benzyl]-pyrimidine-2,4-diamine] | 65 nM | 2100 nM | 4 µg/mL (≈ 8.61 µM) | 8 µg/mL (≈ 17.2 µM) | –
8 | CCOc1cc(Cc2cnc(N)nc2N)cc(OS(=O)(=O)C(C)C)c1-c1cccc(N)c1 [Example 14c, Propane-2-sulphonic acid 3′-amino-4-(2,4-diamino-pyrimidin-5-ylmethyl)-6-ethoxy-biphenyl-2-yl ester] | – | 61 nM | – | – | MIC ([1]; Table 1, Streptococcus pneumoniae 1/1, trimethoprim- and penicillin-resistant, serotype 6, clinical isolate, read-out: MIC Sp1/1): 1 µg/mL (≈ 2.19 µM); MIC ([2]; Table 1, Staphylococcus aureus 101, MRSA- and trimethoprim-resistant, clinical isolate): 1 µg/mL (≈ 2.19 µM); IC50 ([3]; Table 1): 20 nM
9 | CCOc1cc(Cc2cnc(N)nc2N)cc(OCC)c1-c1ccc(N2CC(COC)OC2=O)cc1 (racemic) [Example 04-s, (RS)-3-[4′-(2,4-Diamino-pyrimidin-5-ylmethyl)-2′,6′-diethoxy-biphenyl-4-yl]-5-methoxymethyl-oxazolidin-2-one] | 61 nM | 1900 nM | 4 µg/mL (≈ 8.1 µM) | 8 µg/mL (≈ 16.2 µM) | –
10 | CCOc1cc(Cc2cnc(N)nc2N)cc(OS(=O)(=O)N(C)C2CC2)c1-c1ccc(CN2CCOCC2)c(N)c1 [Example 30-b, N-Cyclopropyl-N-methyl-sulphamic acid 3′-amino-4-(2,4-diamino-pyrimidin-5-ylmethyl)-6-ethoxy-4′-morpholin-4-ylmethyl-biphenyl-2-yl ester] | 14 nM | 37 nM | 2 µg/mL (≈ 3.43 µM) | 2 µg/mL (≈ 3.43 µM) | –
11 | CCOc1cc(Cc2cnc(N)nc2N)cc(OCC)c1-c1ccc(C#N)cc1 [Example 04-a, 4′-(2,4-Diamino-pyrimidin-5-ylmethyl)-2′,6′-diethoxy-biphenyl-4-carbonitrile] | 82 nM | 2700 nM | 4 µg/mL (≈ 10.3 µM) | 8 µg/mL (≈ 20.5 µM) | –
12 | CCOc1cc(Cc2cnc(N)nc2N)cc(OCC)c1-c1ccc(S(N)(=O)=O)cc1 [Example 04-o, 4′-(2,4-Diamino-gyrimidin-5-ylmethyl)-2′,6′-diethoxy-biphenyl-4-sulphonic acid amide] | 60 nM | 1300 nM | 8 µg/mL (≈ 18 µM) | 8 µg/mL (≈ 18 µM) | –
13 | CCOc1cc(Cc2cnc(N)nc2N)cc(OS(=O)(=O)N(CC)CC)c1-c1ccc(NC)cc1 [Example 26-f, Diethylsulphamic acid 4-(2,4-diamino-pyrimidin-5-ylmethyl)-6-ethoxy-4′-methylamino-biphenyl-2-yl ester] | 8.8 nM | 230 nM | 1 µg/mL (≈ 2 µM) | 2 µg/mL (≈ 4 µM) | –
14 | CCOc1cc(Cc2cnc(N)nc2N)cc(OS(=O)(=O)N(C)C2CC2)c1-c1ccc(N)c(F)c1 [Example 28-c, N-Cyclopropyl-N-methyl-sulphamic acid 4′-amino-4-(2,4-diamino-pvrimidin-5-ylmethyl)-6-ethoxy-3′-fluoro-biphenyl-2-yl ester] | 18 nM | 240 nM | 1 µg/mL (≈ 1.99 µM) | 2 µg/mL (≈ 3.98 µM) | –
15 | CCOc1cc(Cc2cnc(N)nc2N)cc(OCCC2CCOCC2)c1-c1ccc(O)cc1 [Example 08-e, 4′-(2,4-Diamino-pyrimidin-5-ylmethyl)-6′-ethoxy-2′-[2-(tetrahydrogyran-4-yl)-ethoxy]-biphenyl-4-ol] | 5.6 nM | 950 nM | 1 µg/mL (≈ 2.15 µM) | 8 µg/mL (≈ 17.2 µM) | –
16 | CCOc1cc(Cc2cnc(N)nc2N)cc(OS(=O)(=O)N(CC)CC)c1-c1cccc(N)c1 [Example 19-h, Diethyl-sulphamic acid 3′-amino-4-(2,4-diamino-pyrimidin-5-ylmethyl)-6-ethoxy-biphenyl-2-yl ester] | 0.55 nM | 160 nM | 1 µg/mL (≈ 2.06 µM) | 2 µg/mL (≈ 4.11 µM) | –
17 | CCOc1cc(Cc2cnc(N)nc2N)cc(OS(=O)(=O)CC(C)(C)C)c1-c1ccc(NCCO)cc1 [Example 37-d, 2,2-Dimethyl-propane-1-sulphonic acid 4-(2,4-diamino-pyrimidin-5-ylmethyl)-6-ethoxy-4′-(2-hydroxy-ethylamino)-biphenyl-2-yl ester] | 1.5 nM | 290 nM | 0.25 µg/mL (≈ 0.472 µM) | 8 µg/mL (≈ 15.1 µM) | –
18 | CCOc1cc(Cc2cnc(N)nc2N)cc(OCC)c1-c1ccc(O)c(C)c1 [Example 02-s, 4′-(2,4-Diamino-pyrimidin-5-ylmethyl)-2′,6′-diethoxy-3-methyl-biphenyl-4-ol] | 83 nM | 2200 nM | 8 µg/mL (≈ 20.3 µM) | 4 µg/mL (≈ 10.1 µM) | –
19 | CCOc1cc(Cc2cnc(N)nc2N)cc(OS(=O)(=O)C(C)C)c1-c1cc(N)cc(F)c1 [Example 33-c, Propane-2-sulphonic acid 3′-amino-4-(2,4-diamino-pyrimidin-5-ylmethyl)-6-ethoxy-5′-fluoro-4-ylmethyl-biphenyl-2-yl ester] | 14 nM | – | – | – | MIC Sp1/1 [1, 7]: 2 µg/mL (≈ 4.21 µM); MIC Sa101 [2, 6]: 2 µg/mL (≈ 4.21 µM); IC50 [4, 8]: 100 nM
20 | CCOc1cc(Cc2cnc(N)nc2N)cc(OC2CCC(OC)C2)c1-c1ccc(O)cc1 (stereo not shown) [Example 08-r, 5-[6-Ethoxy-2-(3-methoxy-cyclopentyloxy)-4′-hydroxy-biphenyl-4-ylmethyl]-pyrimidine-2,4-diamine] | 37 nM | 1200 nM | 8 µg/mL (≈ 17.8 µM) | 8 µg/mL (≈ 17.8 µM) | –
21 | CCOc1cc(Cc2cnc(N)nc2N)cc(OCC2CC2)c1-c1ccc(N)c(C)c1 [Example 11-a] | 18 nM | 1800 nM | 1 µg/mL (≈ 2.38 µM) | 8 µg/mL (≈ 19.1 µM) | –
22 | CCOc1cc(Cc2cnc(N)nc2N)cc(OS(=O)(=O)C2CCC2)c1-c1cccc(N)c1 [Example 40-a, Cyclobutane-sulphonic acid 3′-amino-4-(2,4-diamino-pyrimidin-5-ylmethyl)-6-ethoxy-biphenyl-2-yl ester] | 6.5 nM | 52 nM | 1 µg/mL (≈ 2.13 µM) | 2 µg/mL (≈ 4.26 µM) | –
23 | CCOc1cc(Cc2cnc(N)nc2N)cc(O[C@@H]2CCC[C@H]2CC#N)c1-c1ccc(O)cc1 (racemic) [Example 08-u, rac-(E)-{2-[4-(2,4-Diamino-pyrimidin-5-ylmethyl)-6-ethoxy-4′-hydroxy-biphenyl-2-yloxy]-cyclopentyl}-acetonitrile] | 150 nM | – | – | – | MIC Sp1/1 [1, 7]: 4 µg/mL (≈ 8.7 µM); MIC Sa101 [2, 6]: 8 µg/mL (≈ 17.4 µM); IC50 [4, 8]: 1800 nM
24 | CCOc1cc(Cc2cnc(N)nc2N)cc(OS(=O)(=O)CC(C)(C)OC)c1-c1ccc(N)c(F)c1 [Example 39-c, (2-Methoxg-2-methyl-propane)-1-sulphonic acid 4′-amino-4-(2,4-diamino-pyrimidin-5-ylmethyl)-6-ethoxy-3′-fluoro-4-ylmethyl-biphenyl-2-yl ester] | 14 nM | – | – | – | MIC Sp1/1 [1, 7]: 1 µg/mL (≈ 1.92 µM); MIC Sa101 [2, 6]: 8 µg/mL (≈ 15.4 µM); IC50 [4, 8]: 1000 nM
25 | CCOc1cc(Cc2cnc(N)nc2N)cc(OS(=O)(=O)CC)c1-c1ccc2c(c1)OCO2 [Example 17-b, Ethanesulphonic acid 2-benzo[1.3]dioxol-5-yl-5-(2,4-diamino-Iyrimidin-5-ylmethyl)-3-ethoxy-phenyl ester] | 38 nM | 370 nM | 2 µg/mL (≈ 4.23 µM) | 4 µg/mL (≈ 8.47 µM) | –
